{"source": "patent US6379959B1", "about": "“Metalocarboxypeptidase inhibitors and derived molecules used as antitumor agents” (Universitat Autonoma de Barcelona, priority 1996, dated 2002)", "key": {"[1]": {"test_system": "hamster insulinome cell line HIT", "test": "Proliferation test by recount of the cells number (hemocytometer), HIT", "assay_type": "cell-based", "details": "Postadhesion, 4 days", "experimental": "In this assay and with the aim of determining whether the presence in the culture medium produces some effect on the growth in vitro of the cell lines, the final number of the cells when the control reaches monolayer is determined, in the presence and in the absence of the inhibitor. The calculation is made by direct recount of the number of cells using trypsinization and subsequent recount in a hemocytometer. The detailed method is as follows: 1. In each of the three culture flasks of 25 cm^2, 5×10^5 cells are seed and a total volume of the culture medium is added (DMEM with a 10% of fetal bovine serum or synthetic serum, according to the test) of 5 mL: 2. The cells are maintained in an incubator at 37° C., 87% of relative humidity and 10% of CO2. […] The total number of cells of the W zone of the hemocytometer is counted, differentiating between the live and the dead ones. Based on this recount, the total number of cells that was in the initial suspension (which will be the total number of cells that was in the culture) is calculated by multiplying the number obtained by 2×10^4. The viability (in %) is calculated by dividing the number of live cells by the total number of counted cells and multiplying it by 100. The effect produced by the presence of PCI in the medium is expressed as % of cell growth inhibition, which is calculated according to the formula [formula] […]"}, "[2]": {"test_system": "human pancreatic adenocarcinoma cell line Panc-1", "test": "Proliferation test with tetrazolium salts, Panc-1 in medium with serum, 10 days", "assay_type": "cell-based", "experimental": "It was performed the same kind of test which had been carried out for the Capan-1 cell line but with Panc-1, another human pancreatic adenocarcinoma cell line. We are referring to a human pancreatic adenocarcinoma ATCC nr. CRL 1469, established by Lieber, M. et al. (1975) In. J. Cancer, 15: 741-747. Of ductal origin, it is not highly differentiated.\nAs for the Capan-1 cell line, two types of experiments were carried out with and without bovine fetal serum. The protocol followed for the test, growing in RPMI plus bovine fetal serum, was the same as that used with Capan-1 cell line but with small variations, given the difference in the duplication times between the two lines. The tests were carried out with the native PCI (wtPCI) and with the mutant PCI (PCIdelYVG). The protocol is detailed as follows:\n1. In a culture plate with 96 wells, 2,000 cells were seed in 30 wells for the tests with wtPCI and in 36 for the tests with PCIdelYVG. From these 30 or 36:\nIn 6 wells (control), 200 μL of full medium (RPMI+10%FBS) without wtPCI or PCIdelYVG/mL were added. […]\n2. The cells were kept in an incubator at 37° C., 87% of relative humidity and 10% of CO2. The old medium was sucked out with a Pasteur pipette. Medium free of wtPCI or PCIdelYVG was added to the control wells and to the others a medium was added with identical concentration of wtPCI or PCIdelYVG.\n3. After 10 days, the cell growth was evaluated per well, according to the method detailed in the protocol of Section 4.B.2.a."}, "[3]": {"test_system": "trypsin", "test": "Gene expression analysis by Northern transfer, trypsin probe", "assay_type": "cell-based, human", "details": "for beta counts, Trypsin probe: 12 days, Capan-1 (control 511)", "experimental": "To verify whether the PCI plays any role in signal transduction, studies of gene expression were carried out by Northern transfer. The probes were: β2-microglobulin, p53 and trypsin. The β2-microglobulin is a constitutive gene that is used as a sample loading control in the gel. p53 is a transcription factor which, among other functions, controls the state of the genomic DNA and the cell cycle (Bates, S. & Vousden, K. H. (1996) Curr. Opin. Genet. Develop., 6: 12-19). If the DNA is damaged, p53 induces its repair and, if it is excessively damaged, it provokes programmed cellular death (apoptosis). Trypsin is a marker of pancreatic cells of the acinar type. The trypsin is not expressed by all the tumoral cells and it is believed that it is expressed by the cells with metastatic power and/or invasive power (Fernández, E. et al., (1994) Cancer, 73: 2285-2295). The probes employed are described as follows:\nIn the first place, 3×10^6 cells of the human pancreatic adenocarcinoma cell line Capan-1 were placed in each one of the 12 flasks of 150 cm^2. […] They were maintained in culture for 12 days period, changing their medium every 4 days, adding fresh PCI. Once the treatment was completed, the cells were trypsinized and the sediment of the cells was kept at −80° C. Afterwards, the extraction of the RNA was carried out.\nThe quantifying of the hybridized filters with the respective probes was done using a Betascope 601 blot Analyzer counter (Betagen, USA). The counting time was 45 min for the hybridized filter with the probe p53 and β2-microglobuline and 2 h for the trypsin probe.\nAssuming that the counts of the β2-Microglobuline are an indication of the total amount of poly(A^+) RNA, the data may be standardized as a percentage of counts of the band compared to the β2-microglobuline counts of the same cells, giving a value which depends on the abundance of the specific mRNA in relation to the total of mRNA."}}, "note": "Positions of bridges follow the written chain, without caps; N, C: chain ends. No end group written: not given here."}
{"substance": "PCI: potato carboxypeptidase inhibitor, isoform IIa, obtained by recombinant DNA techniques in E. coli (SEQ ID NO.2) (EQHADPICNKPCKTHDDCSGAWFCQACWNSARTCGPYVG; disulfide 12-27, 18-34, 8-24)", "values": [{"measurement": "Percentage of Growth Inhibition", "setting": "[1]; 10 mg PCI/mL", "result": "43.0 ± 22.8", "unit": "%"}, {"measurement": "Percentage of Growth Inhibition", "setting": "[1]; 50 mg PCI/mL", "result": "60.1 ± 28.3", "unit": "%"}, {"measurement": "Growth (Percentage in relation to the average of the controls)", "setting": "[2]; 0.1 mg/mL wtPCI, RPMI+10%FBS", "result": 90.85, "unit": "%"}, {"measurement": "Growth (Percentage in relation to the average of the controls)", "setting": "[2]; 1 mg/mL wtPCI", "result": 84.55, "unit": "%"}, {"measurement": "Growth (Percentage in relation to the average of the controls)", "setting": "[2]; 10 mg/mL wtPCI", "result": 82.22, "unit": "%"}, {"measurement": "Growth (Percentage in relation to the average of the controls)", "setting": "[2]; 50 mg/mL wtPCI", "result": 71.14, "unit": "%"}, {"measurement": "level of inhibition", "setting": "[2]; concentration of 0.1 μg/mL", "result": 9.15, "unit": "%"}, {"measurement": "level of inhibition", "setting": "[2]; concentration of 50 μg/mL", "result": 28.86, "unit": "%"}, {"measurement": "lower transcription of trypsin, inverse quotient (control/treatment)", "setting": "[3]; 1 mg/mL PCI", "result": 2.9, "unit": "times"}, {"measurement": "Trypsin/b2 (counts of one band in relation to those of β2-microglobuline)", "setting": "[3]; 1 mg/mL PCI (control 0.5351)", "result": 0.1814}, {"measurement": "beta counts, Trypsin probe", "setting": "[3]; 1 mg/mL PCI", "result": 396}, {"measurement": "lower transcription of trypsin, inverse quotient (control/treatment)", "setting": "[3]; 10 mg/mL PCI", "result": 7.8, "unit": "times"}, {"measurement": "Trypsin/b2 (counts of one band in relation to those of β2-microglobuline)", "setting": "[3]; 10 mg/mL PCI (control 0.5351)", "result": 0.0687}, {"measurement": "beta counts, Trypsin probe", "setting": "[3]; 10 mg/mL PCI", "result": 432}]}
